Test results reported in patent US11446287B2, “Compounds and methods for EP300 or CBP modulation and indications therefor” (Opna Immuno-Oncology SA, priority 2019, dated 2022).

biological target: T1, Recombinant human CBP containing the bromodomain (CBP-BD (1043-1159)) (Homo sapiens, UniProt Q92793); assay: CBP Alphascreen binding assay; settings: read-out: CREBBP (CBP) IC50
T1 construct: Recombinant human CBP bromodomain (CBP-BD (1043-1159)); made in house; host or cells: E. coli BL21-CodonPlus (DE3), modified pET vector
In short: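 Buffer: 50 mM HEPES pH 7.5, 50 mM NaCl, 0.01% BSA, 0.01% Triton X-100, 2 mM DTT. The signal was normalised to plate controls and fitted with a four-parameter curve to give IC50.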

T1 sequence (Q92793 1081-1197): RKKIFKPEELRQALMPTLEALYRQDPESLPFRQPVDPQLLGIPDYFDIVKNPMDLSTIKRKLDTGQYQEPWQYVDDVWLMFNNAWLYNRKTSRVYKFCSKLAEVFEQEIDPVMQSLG

| SMILES | IC50 [µM] |
| --- | --- |
| Cc1noc(C)c1-c1cnc2c(c1)c(-c1ccnc(C(=O)O)c1)cn2S(=O)(=O)c1ccccc1 [P-0055, 4-(5-(3,5-dimethylisoxazol-4-yl)-1-(phenylsulfonyl)-1H-pyrrolo[2,3-b]pyridin-3-yl)picolinic acid] | 0.0001 to 1 |
| COc1cc(C(=O)O)cc(OC)c1-n1cc(CC2CCC2)c2ncc(-c3c(C)noc3C)cc21 [P-0067, 4-(3-(cyclobutylmethyl)-6-(3,5-dimethylisoxazol-4-yl)-1H-pyrrolo[3,2-b]pyridin-1-yl)-3,5-dimethoxybenzoic acid] | 0.0001 to 1 |
| COc1cccc(Cn2cc(-c3ccnc(C(=O)O)c3)c3cc(-c4c(C)noc4C)cnc32)c1 [P-0057, 4-(5-(3,5-dimethylisoxazol-4-yl)-1-(3-methoxybenzyl)-1H-pyrrolo[2,3-b]pyridin-3-yl)picolinic acid] | 0.0001 to 1 |
| Cc1noc(C)c1-c1cnc2c(c1)c(C1=CCC(C(=O)O)CC1)cn2Cc1ccccc1 (stereo not shown) [P-0093, 4-(1-benzyl-5-(3,5-dimethylisoxazol-4-yl)-1H-pyrrolo[2,3-b]pyridin-3-yl)cyclohex-3-ene-1-carboxylic acid] | 0.0001 to 1 |
| Cc1noc(C)c1-c1cnc2c(Cc3ccccc3Cl)cn(-c3ccnc(C(=O)O)c3)c2c1 [P-0091, 4-(3-(2-chlorobenzyl)-6-(3,5-dimethylisoxazol-4-yl)-1H-pyrrolo[3,2-b]pyridin-1-yl)picolinic acid] | 0.0001 to 1 |
| Cc1cc(C(=O)O)cnc1-n1cc(CC2CCC2)c2ncc(-c3c(C)noc3C)cc21 [P-0075, 6-(3-(cyclobutylmethyl)-6-(3,5-dimethylisoxazol-4-yl)-1H-pyrrolo[3,2-b]pyridin-1-yl)-5-methylnicotinic acid] | 0.0001 to 1 |
| Cc1noc(C)c1-c1cnc2c(Cc3cccc(Cl)c3)cn(-c3ccnc(C(=O)O)c3)c2c1 [P-0090, 4-(3-(3-chlorobenzyl)-6-(3,5-dimethylisoxazol-4-yl)-1H-pyrrolo[3,2-b]pyridin-1-yl)picolinic acid] | 0.0001 to 1 |
| Cc1noc(C)c1-c1cnc2c(c1)c(-c1ccc(C(=O)O)cc1)cn2C(c1ccccn1)C1CCCCC1 (stereo not shown) [P-0004, 4-(1-(cyclohexyl(pyridin-2-yl)methyl)-5-(3,5-dimethylisoxazol-4-yl)-1H-pyrrolo[2,3-b]pyridin-3-yl)benzoic acid] | 0.0001 to 1 |
| Cc1noc(C)c1-c1cnc2c(c1)c(-c1cccc(C(=O)O)c1)cn2C(c1ccccn1)C1CCC1 (stereo not shown) [P-0073, 3-(1-(cyclobutyl(pyridin-2-yl)methyl)-5-(3,5-dimethylisoxazol-4-yl)-1H-pyrrolo[2,3-b]pyridin-3-yl)benzoic acid] | 0.0001 to 1 |
| Cc1noc(C)c1-c1cnc2c(c1)c(-c1cccc(C(=O)O)c1)cn2C(C1CC1)C1CC1 [P-0058, 3-(1-(dicyclopropylmethyl)-5-(3,5-dimethylisoxazol-4-yl)-1H-pyrrolo[2,3-b]pyridin-3-yl)benzoic acid] | 0.0001 to 1 |
| Cc1noc(C)c1-c1cnc2c(c1)c(-c1ccccc1)cn2C(c1ccccn1)C1CCCC1 (stereo not shown) [P-0003, 4-(1-(cyclopentyl(pyridin-2-yl)methyl)-3-phenyl-1H-pyrrolo[2,3-b]pyridin-5-yl)-3,5-dimethylisoxazole] | 8 to 1000 |
| COc1c(-n2cc(CC3CCC3)c3ncc(-c4c(C)noc4C)cc32)ccc(C(=O)O)c1F [P-0087, 4-(3-(cyclobutylmethyl)-6-(3,5-dimethylisoxazol-4-yl)-1H-pyrrolo[3,2-b]pyridin-1-yl)-2-fluoro-3-methoxybenzoic acid] | 0.0001 to 1 |
| Cc1noc(C)c1-c1cnc2c(CC3CCC3)cn(-c3ccc(C#N)cc3)c2c1 [P-0076, 4-(3-(cyclobutylmethyl)-6-(3,5-dimethylisoxazol-4-yl)-1H-pyrrolo[3,2-b]pyridin-1-yl)benzonitrile] | 1 to 8 |
